In patent US10155751B2, “Pyrazolyl-substituted heteroaryls and their use as medicaments” (Boehringer Ingelheim International GmbH, priority 2015, dated 2018):
Read-outs that look alike come from different tables or passages of the source.

Assays:
[1] = biological target: Recombinant human SYK (amino acids 342-635), GST-SYK kinase fusion protein (Homo sapiens (Human), UniProt P43405); assay: SYK kinase inhibition test (Kinase Glo luminescence); assay type: biochemical
Experimental: The catalytic activity of the GST-SYK kinase fusion protein was determined using the Kinase Glo® Luminescence Kinase test (Promega; V6712). In this homogeneous test the amount of ATP remaining after the kinase reaction is quantified by a luciferin-luciferase reaction using luminescence. The luminescence signal obtained correlates with the amount of ATP still present and thus correlates inversely with the activity of the kinase.
The test compounds were dissolved in 100% DMSO at a concentration of 10 mM and diluted in DMSO to a concentration of 1 mM. Serial Dilution is done in 100% DMSO. All further dilutions of the substances were carried out with test buffer (25 mM HEPES pH7.5; 25 mM MgCl2; 5 mM MnCl2; 50 mM KCl; 0.2% HSA; 0.01% CHAPS; 100 μM Na3VO4; 0.5 mM DTT). Dilution steps and concentration range were adapted according to need. 7 μl aliquots of these dilutions were transferred into a 384-well Optiplate (Perkin Elmer, #6007290). GST-SYK was diluted to 12 nM in the test buffer and 5 μl of this dilution were used in the kinase test (final concentration of SYK=4 nM in a total volume of 15 μl). After 15 minutes incubation at room temperature 3 μl of a mixture of 750 nM ATP and 100 μg/ml poly (L-Glutamic acid L-Tyrosine 4:1), Fluka #81357) in test buffer were added to each well and the incubation was continued for a further 60 minutes at room temperature.
(§1) Positive controls are the reaction mixtures that contain no test substance; negative controls (blanks) are reaction mixtures that contain no kinase.
After 60 minutes, 10 μl Kinase-Glo® solution (Promega, Cat. # V6712) (heated to room temperature) were added to each well and incubation was continued for a further 15 minutes. The plates were read in Envision Luminescence Reader (Perkin-Elmer).
The output file of the reader is a csv file that contains the well number and measured relative light units (RLU). For data evaluation and calculation, the measurement of the negative control was set as 100% ctrl and the measurement of the positive control was set as 0% ctrl. Based on this values the % value for the measurement of each substance concentration was calculated using an Assay Explorer software (Accelrys). Normally, the % ctrl values calculated are between 0% and 100% values but may also occur outside these limits in individual cases based on variability or compound characteristics. The IC50-values were calculated from the % ctrl values using Assay Explorer software. Calculation: [y=(a−d)/(1+(x/c)^b)+d] a=low value, d=high value; x=conc M; c=IC50 M; b=hill; y=% ctrl.
Satisfying SYK inhibitory capacities are represented by an IC50(SYK)-Value measured by this assay of <10 nMol.

[2] = biological target: Recombinant human FLT3 (amino acids 564-958) (Homo sapiens (Human), UniProt P36888); assay: FLT3 kinase test (ADP Glo); assay type: biochemical
Experimental: The activity of the FLT3 kinase protein was determined using the ADP Glo® Luminescence Kinase test (Promega; V9103X). In this homogeneous test the amount of ADP remaining after the kinase reaction is quantified by a luciferin-luciferase reaction using luminescence. The luminescence signal obtained correlates with the amount of ADP still present and thus correlates with the activity of the protein kinase.
The test compounds were dissolved in 100% DMSO at a concentration of 10 mM and diluted in DMSO to a concentration of 5 mM. Serial Dilution is done in 1:10 steps in 100% DMSO. All further dilutions of the substances were carried out with test buffer (50 mM Hepes, pH 7.5, 10 mM MgCl2, 1 mM EGTA, 0.01% Brij35, 0.1% BSA) until a concentration was reached which was 2.5 times above the final test concentration (final concentration of the compounds: 50 μM to 0.005 nM). […] FLT3 enzyme was diluted to 5 nM in the test buffer and 4 μl of this dilution were used in the kinase test (final concentration of FLT3=2 nM in a total volume of 10 μl). After 60 minutes incubation at room temperature 2 μl mixture of 2.5 mg/ml substrate (Poly-Glu/Tyr; Sigma #P0275) and 2.5 mM ultra-pure ATP (Promega #V915B) in test buffer were added to each well and the incubation was continued for a further 90 minutes at room temperature.
as §1
After 90 minutes, 10 μl ADP-Glo® solution (ADP-Glo Reagent #V912B Promega) (heated to room temperature) were added to each well and incubation was continued for a further 60. minutes. Then 20 μl Kinase detection mix (Detection Buffer #V913B Promega; Kinase Detection Substrate #V914B Promega) were added and incubated for 40 minutes at room temperature. The plates were read in Envision Luminescence Reader (Perkin-Elmer).
The output file of the reader is a csv file that contains the well number and measured RLU. For data evaluation and calculation, the measurement of the negative control was set as 0% ctrl and the measurement of the positive control was set as 100% ctrl. Based on this values the % value for the measurement of each substance concentration can be calculated using an Assay Explorer software (e.g. Accelrys). Normally, the % ctrl values calculated are between 0% and 100% values but may also occur outside these limits in individual cases based on variability or compound characteristics. The IC50 values were calculated from the % ctrl values using Assay Explorer software. Calculation: [y=(a−d)/(1+(x/c)^b)+d], a=low value, d=high value; x=conc. M; c=IC50 M; b=hill; y=% ctrl.

[3] = read-out: SYK inhibition IC50-value (chapter 5.1)
[4] = read-out: FLT3 inhibition IC50-value (chapter 5.4)
[5] = read-out: IC50(SYK) in SYK-inhibition assay

Chain of Recombinant human FLT3 (amino acids 564-958) (P36888 564-958): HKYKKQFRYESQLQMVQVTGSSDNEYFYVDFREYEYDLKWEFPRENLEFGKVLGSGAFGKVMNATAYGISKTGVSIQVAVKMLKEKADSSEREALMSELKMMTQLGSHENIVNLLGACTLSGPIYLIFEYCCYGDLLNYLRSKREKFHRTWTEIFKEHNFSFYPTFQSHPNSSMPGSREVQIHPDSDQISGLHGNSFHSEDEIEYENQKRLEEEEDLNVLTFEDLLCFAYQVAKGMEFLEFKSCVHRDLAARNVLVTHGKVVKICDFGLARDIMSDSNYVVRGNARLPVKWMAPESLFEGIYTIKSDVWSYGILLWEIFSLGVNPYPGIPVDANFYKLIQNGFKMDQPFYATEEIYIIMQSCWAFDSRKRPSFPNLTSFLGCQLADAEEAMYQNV

| Structure (SMILES) | IC50 [1, 3] [nM] | IC50 [2, 4] [nM] | IC50 [1, 5] [nM] | IC50 ([2]; read-out: IC50(FLT3)) [nM] |
| --- | --- | --- | --- | --- |
| C[C@@H](Oc1cc(-c2cnn(C3CC3)c2)cc2nn(C)c(F)c12)[C@H]1CNC(=O)C1 [Example 5, (R)-4-{(R)-1-[6-(1-Cycloprop-yl-1H-pyrazol-4-yl)-3-fluoro-2-methyl-2H-indazol-4-yloxy]-ethyl}-pyrrolidin-2-one] | 3.3 | 3990 |  |  |
| C[C@@H](Oc1cc(-c2cnn(C3CCC(F)(F)C3)c2)cc2nn(C)c(F)c12)[C@H]1CNC(=O)C1 (some centres unmarked) [Example 7] | 1.3 | 2440 |  |  |
| Cc1c2c(O[C@H](C)[C@H]3CNC(=O)C3)cc(-c3cnn(C4CCC4)c3)cc2nn1C [Example 21, (R)-4-{(R)-1-[6-(1-Cyclobutyl-1H-pyrazol-4-yl)-2,3-dimethyl-2H-indazol-4-yloxy]-ethyl}-pyrrolidin-2-one] | 1.2 | 2210 |  |  |
| Cc1c2c(O[C@H](C)[C@H]3CNC(=O)C3)cc(-c3cnn([C@H]4CO[C@@H]5CCCO[C@@H]54)c3)cc2nn1C [Example 10, 4-(1-{6-[(R)-(3S,3aR,7aR)-1-(Hexahydro-furo[3,2-b]pyran-3-yl)-1H-pyrazol-4-yl]-2,3-dimethyl-2H-indazol-4-yloxy}-ethyl)-pyrrolidin-2-one] | 3.3 | 2020 |  |  |
| Cc1c2c(O[C@H](C)[C@H]3CNC(=O)C3)cc(-c3cnn(C(C)(C)C)c3)cc2nn1C [Example 13, (R)-4-{(R)-1-[6-(1-tert-Butyl-1H-pyrazol-4-yl)-2,3-dimethyl-2H-indazol-4-yloxy]-ethyl}-pyrrolidin-2-one] | 0.9 | 5220 |  |  |
| Cc1c2c(O[C@H](C)[C@H]3CNC(=O)C3)cc(-c3cnn(C4CCC(F)(F)C4)c3)cc2nn1C (stereo partly drawn) [Example 22, (R)-4-((R)-1-{6-[1-(3,3-Difluoro-cyclopentyl)-1H-pyrazol-4-yl]-2,3-dimethyl-2H-indazol-4-yloxy}-ethyl)-pyrrolidin-2-one] | 1.2 | 1950 |  |  |
| C[C@@H](Oc1cc(-c2cnn(C3CC(C)(C)OC3(C)C)c2)cc2nn(C)c(F)c12)[C@H]1CNC(=O)C1 (stereo partly drawn) [Example 14, (R)-4-((R)-1-{3-Fluoro-2-methyl-6-[1-(2,2,5,5-tetramethyl-tetrahydro-furan-3-yl)-1H-pyrazol-4-yl]-2H-indazol-4-yloxy}-ethyl)-pyrrolidin-2-one] | 3.2 | 4050 |  |  |
| Cc1cnn2cc(-c3cnn(C(C)(C)C)c3)cc(O[C@H](C)[C@H]3CNC(=O)C3)c12 [example 6.09 on page 559 of WO15017610, reference compound] | 0.1 | 25 | < 10 | 25 |
| Cc1c2c(O[C@H](C)[C@H]3CNC(=O)C3)cc(-c3cnn(C4CC(C)(C)OC4(C)C)c3)cc2nn1C (stereo partly drawn) [Example 16, (R)-4-((R)-1-{2,3-Dimethyl-6-[1-(2,2,5,5-tetramethyl-tetrahydro-furan-3-yl)-1H-pyrazol-4-yl]2H-indazol-4-yloxy}-ethyl)-pyrrolidin-2-one] | 3.1 | 3490 |  |  |
| Cc1c2c(O[C@H](C)[C@H]3CNC(=O)C3)cc(-c3cnn(C(C)C)c3)cc2nn1C [Example 18, (R)-4-{(R)-1-[6-(1-Isopropyl-1H-pyrazol-4-yl)-2,3-dimethyl-2H-indazol-4-yloxy]-ethyl}-pyrrolidin-2-one] | 1.1 | 4670 |  |  |
| Cc1cnn2cc(-c3cnn(C(C)(C)C)c3)nc(O[C@H](C)[C@H]3CNC(=O)C3)c12 [example 5.20 on page 506 of WO15017610, reference compound] | 0.2 | 43 | < 10 | 43 |
| C[C@@H](Oc1nc(-c2cnn(C(C)(C)C)c2)cc2ncn(C)c12)[C@H]1CNC(=O)C1 [example 3A.02, on page 196 of WO15017610, reference compound] | 1.9 | 384 | < 10 | 384 |
| Cc1c2c(O[C@H](C)[C@H]3CNC(=O)C3)cc(-c3cnn([C@@H]4CCOC(C)(C)C4)c3)cc2nn1C [Example 9, (R)-4-((R)-1-{6-[1-((R)-2,2-Dimethyl-tetrahydro-pyran-4-yl)-1H-pyrazol-4-yl]-2,3-dimethyl-2H-indazol-4-yloxy}-ethyl)-pyrrolidin-2-one] | 1.1 | 1840 |  |  |
| Cc1c2c(O[C@H](C)[C@H]3CNC(=O)C3)cc(-c3cnn(CC4CC4)c3)cc2nn1C [Example 8, (R)-4-{(R)-1-[6-(1-Cyclopropylmethyl-1H-pyrazol-4-yl)-2,3-dimethyl-2H-indazol-4-yloxy]-ethyl}-pyrrolidin-2-one] | 1.4 | 2070 |  |  |
| Cc1cc2c(O[C@H](C)[C@H]3CNC(=O)C3)cc(-c3cnn(C(C)(C)C)c3)cn2n1 [example 6.60 on page 587 of WO15017610, reference compound] | 10.3 | 6680 | 10.3 | 6680 |
| C[C@@H](Oc1cc(-c2cnn(C(C)(C)C)c2)cc2ncn(C)c12)[C@H]1CNC(=O)C1 [example 3B.22 on page 219 of WO15017610, reference compound] | 0.8 | 307 | < 10 | 307 |
| Cc1c2c(O[C@H](C)[C@H]3CNC(=O)C3)nc(-c3c[nH]nc3C(C)(C)C)cc2nn1C [Example 4, (R)-4-{(R)-1-[6-(3-tert-Butyl-1H-pyrazol-4-yl)-2,3-dimeth-yl-2H-pyrazolo[4,3-c]pyridin-4-yloxy]-ethyl}-pyrrolidin-2-one] | 2.2 | 7410 |  |  |
| C[C@@H](Oc1cc(-c2cnn(C3CCC3)c2)cc2nn(C)c(F)c12)[C@H]1CNC(=O)C1 [Example 1, (R)-4-{(R)-1-[6-(1-Cyclobutyl-1H-pyrazol-4-yl)-3-fluoro-2-methyl-2H-indazol-4-yloxy]-ethyl}-pyrrolidin-2-one] | 1 | 2230 |  |  |
| CC(C)n1cc(-c2cc(O[C@H](C)[C@H]3CNC(=O)C3)c3c(F)n(C)nc3c2)cn1 [Example 2, (R)-4-{(R)-1-[3-Fluoro-6-(1-isopropyl-1H-pyrazol-4-yl)-2-methyl-2H-indazol-4-yloxy]-ethyl}-pyrrolidin-2-one] | 1.3 | 2830 |  |  |
| C[C@@H](Oc1cc(-c2cnn(CCC(F)(F)F)c2)cc2nn(C)c(F)c12)[C@H]1CNC(=O)C1 [Example 12, (R)-4-((R)-1-{3-Fluoro-2-methyl-6-[1-(3,3,3-trifluoro-propyl)-1H-pyrazol-4-yl]-2H-indazol-4-yloxy}-ethyl)-pyrrolidin-2-one] | 2.9 | 5030 |  |  |
